Assay results reported in article PMC7997032, “Organic synthesis and anti-influenza A virus activity of cyclobakuchiols A, B, C, and D” (PLoS ONE, 2021).
“And” between values parts separate entries of the source, which are not always exact repeats. Equal entries are not always repeated.

Tests used:
A/PR/8/34 virus = experiment: Influenza A viral growth assay (viral titer of culture media); assay type: cell-based, influenza A H1N1 virus; design: viral titer of culture media, individual replicate / viral titer of culture media, ave: unit not given here; conditions: A/PR/8/34 (PR8), 12.5uM; for viral titer of culture media, ave: average of #1-3 exp (n=9); for viral titer of culture media, individual replicate: replicates of #1-3 exp
A/WSN/33 virus = experiment: as above; assay type: cell-based, influenza A H1N1 virus; conditions: A/WSN/33 (WSN), 12.5uM; for viral titer of culture media, ave: average of #1-3 exp (n=9); for viral titer of culture media, individual replicate: replicates of #1-3 exp

SMILES	viral titer of culture media, ave (A/PR/8/34 virus; 12h)	viral titer of culture media, individual replicate (A/PR/8/34 virus; 12h)	viral titer of culture media, ave (A/PR/8/34 virus; 24h)	viral titer of culture media, individual replicate (A/PR/8/34 virus; 24h)	viral titer of culture media, ave (A/PR/8/34 virus; 48h)	viral titer of culture media, individual replicate (A/PR/8/34 virus; 48h)	viral titer of culture media, ave (A/PR/8/34 virus; 72h)	viral titer of culture media, individual replicate (A/PR/8/34 virus; 72h)	viral titer of culture media, ave (A/WSN/33 virus; 12h)	viral titer of culture media, individual replicate (A/WSN/33 virus; 12h)	viral titer of culture media, ave (A/WSN/33 virus; 24h)	viral titer of culture media, individual replicate (A/WSN/33 virus; 24h)	viral titer of culture media, ave (A/WSN/33 virus; 48h)	viral titer of culture media, individual replicate (A/WSN/33 virus; 48h)	viral titer of culture media, ave (A/WSN/33 virus; 72h)	viral titer of culture media, individual replicate (A/WSN/33 virus; 72h)
C=C[C@]1(C)CC[C@H](C(=C)C)[C@@H](c2ccc(O)cc2)C1 [(1R,3R,4R)-cyclobakuchiol A]	31111.1	90000 and 60000 and 30000 (2×) and 10000 (3×) and 20000 (2×)	25555.6	40000 and 30000 (3×) and 10000 (3×) and 50000 and 20000	28888.9	50000 (2×) and 30000 (2×) and 10000 (2×) and 20000 (2×) and 40000	20000	10000 (6×) and 50000 and 30000 and 40000	10300	300 and 1400 and 1000 and 40000 and 10000 (5×)	22944444	2600000 and 3900000 and 1000000 and 60000000 and 10000000 and 9000000 and 20000000 and 30000000 and 70000000	177111111	50000000 and 54000000 and 10000000 and 210000000 (2×) and 230000000 and 190000000 and 380000000 and 260000000	106555556	10000000 (2×) and 7000000 and 200000000 and 150000000 (2×) and 60000000 and 330000000 and 42000000
C=C[C@]1(C)CC[C@H](C(C)(C)O)[C@@H](c2ccc(O)cc2)C1 [(1R,3R,4R)-cyclobakuchiol C]	33333.3	40000 and 60000 (2×) and 30000 (2×) and 10000 (3×) and 50000	52222.2	190000 and 20000 and 90000 and 10000 (3×) and 70000 and 40000 and 30000	37777.8	50000 (2×) and 20000 and 80000 and 10000 (3×) and 40000 and 70000	43333.3	40000 and 20000 (2×) and 90000 and 10000 (2×) and 50000 and 70000 and 80000	8288.89	3000 and 1000 and 600 and 10000 (5×) and 20000	21277778	1600000 and 1000000 and 900000 and 30000000 (2×) and 21000000 and 9000000 and 70000000 and 28000000	246888889	100000000 and 150000000 and 62000000 and 140000000 and 350000000 (2×) and 410000000 and 280000000 and 380000000	155211111	10000000 and 20000000 and 6900000 and 130000000 and 170000000 and 230000000 (2×) and 300000000 (2×)
C=C[C@]1(C)CC[C@@H](C(=C)C)[C@H](c2ccc(O)cc2)C1 [(1R,3S,4S)-cyclobakuchiol B]	24444.4	70000 and 30000 (2×) and 10000 (3×) and 20000 (3×)	30000	60000 and 50000 (2×) and 20000 (3×) and 10000 (2×) and 30000	41111.1	40000 (3×) and 30000 (2×) and 80000 (2×) and 20000 and 10000	58888.9	30000 (2×) and 40000 and 20000 and 10000 (2×) and 250000 and 80000 and 60000	12633.3	1000 (2×) and 1700 and 10000 (3×) and 20000 (2×) and 40000	25455556	2000000 (2×) and 300000 and 80000000 and 30000000 and 16000000 and 40000000 and 8800000 and 50000000	275666667	100000000 and 160000000 and 61000000 and 430000000 and 420000000 and 440000000 and 180000000 and 300000000 and 390000000	208055556	35000000 and 20000000 and 27500000 and 320000000 and 390000000 and 350000000 and 250000000 and 280000000 and 200000000
C=C[C@]1(C)CC[C@@H](C(C)(C)O)[C@H](c2ccc(O)cc2)C1 [(1R,3S,4S)-cyclobakuchiol D]	23333.3	30000 (4×) and 40000 and 20000 and 10000 (3×)	46666.7	100000 and 30000 and 80000 and 20000 and 10000 (2×) and 50000 (2×) and 70000	42222.2	40000 (2×) and 30000 and 90000 and 10000 (2×) and 20000 and 80000 and 60000	51111.1	100000 (2×) and 10000 (3×) and 40000 and 20000 and 90000 and 80000	10344.4	600 and 2000 and 500 and 20000 (3×) and 10000 (3×)	25855556	2700000 and 4000000 and 1000000 and 30000000 (2×) and 10000000 and 80000000 and 25000000 and 50000000	191111111	80000000 and 50000000 (2×) and 300000000 (2×) and 250000000 (3×) and 190000000	140200000	90000000 and 14000000 and 7800000 and 140000000 and 130000000 and 100000000 and 210000000 and 280000000 and 290000000
C=C[C@@](C)(/C=C/c1ccc(O)cc1)CCC=C(C)C [天然型バクチオール]		10000 (4×) and 30000 (3×) and 40000 (2×)	22222.2	50000 and 10000 (5×) and 40000 (2×) and 20000	25555.6	50000 and 20000 and 40000 and 10000 (3×) and 30000 (3×)	31111.1	30000 (2×) and 20000 (2×) and 40000 (2×) and 10000 (2×) and 80000		900 and 300 and 1100 and 30000 (2×) and 10000 (3×) and 50000	14411111	300000 and 1500000 and 900000 and 7000000 and 16000000 and 9000000 and 20000000 and 5000000 and 70000000	220000000	50000000 and 74000000 and 26000000 and 320000000 and 280000000 and 330000000 and 260000000 and 290000000 and 350000000	150111111	10000000 and 29000000 and 52000000 and 150000000 and 240000000 and 210000000 and 200000000 (2×) and 260000000
